The target in the test is T1, human PAH with the R408W mutation (Homo sapiens, UniProt P00439, R408W).
T1 construct: expressed in transfected cells
T1 sequence (P00439 1-452 R408W): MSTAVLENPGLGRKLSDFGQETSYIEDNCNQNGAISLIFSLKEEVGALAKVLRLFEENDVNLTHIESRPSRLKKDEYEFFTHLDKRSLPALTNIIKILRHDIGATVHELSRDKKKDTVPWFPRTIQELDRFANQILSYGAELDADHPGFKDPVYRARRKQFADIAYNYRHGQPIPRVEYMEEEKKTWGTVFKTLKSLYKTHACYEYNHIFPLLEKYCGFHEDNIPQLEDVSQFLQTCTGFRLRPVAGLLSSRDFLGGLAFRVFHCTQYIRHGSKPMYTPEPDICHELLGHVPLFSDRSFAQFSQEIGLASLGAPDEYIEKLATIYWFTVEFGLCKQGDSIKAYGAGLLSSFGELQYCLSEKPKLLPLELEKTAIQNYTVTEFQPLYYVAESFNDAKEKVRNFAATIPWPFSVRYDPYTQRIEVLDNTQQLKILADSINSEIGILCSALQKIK
The test can be described thus: Cell Based Phenylalanine Flux Assay. To be noted: A375 cells expressing human R408W PAH; 24 hrs compound incubation; 13C-Tyrosine by LC-MS; average where tested multiple times; read-out: AC50.

Broadly, the AC50 is the concentration at which the activity in the assay is half-maximal.

For `Cn1ccc(-c2nnc(C(=O)N3CCc4[nH]cnc4[C@H]3c3nc4ccccc4s3)o2)n1` [Example 1805], the half-maximal activity concentration (AC50) was less than 500 nM.

For `Cn1ccc(-c2nnc(C(=O)N3CCc4[nH]cnc4[C@@H]3c3nc4ccccc4s3)o2)n1` [Example 1806, (R)-(4-(benzo[d]thiazol-2-yl)-6,7-dihydro-1H-imidazo[4,5-c]pyridin-5(4H)-yl)(5-(1-methyl-1H-pyrazol-3-yl)-1,3,4-oxadiazol-2-yl)methanone], the concentration at half-maximal activity (AC50) lay within 1000 to 5000 nM.

As for `COCc1nc(C(F)F)c(C(=O)N2CCc3[nH]cnc3[C@H]2c2nc3ccccc3s2)o1` [Example 1807], the AC50 is less than 500 nM.

As to `COCc1nc(C(F)F)c(C(=O)N2CCc3[nH]cnc3[C@@H]2c2nc3ccccc3s2)o1` [Example 1808, (R)-(4-(benzo[d]thiazol-2-yl)-6,7-dihydro-1H-imidazo[4,5-c]pyridin-5(4H)-yl)(4-(difluoromethyl)-2-(methoxymethyl)oxazol-5-yl)methanone], the AC50 was in the range of 1000 to 5000 nM.

As for `CC(C)(O)c1nc(C(F)F)c(C(=O)N2CCc3[nH]cnc3[C@H]2c2nc3ccccc3s2)o1` [Example 1809], the half-maximal activity concentration (AC50) was less than 500 nM.

For the molecule `CC(C)(O)c1nc(C(F)F)c(C(=O)N2CCc3[nH]cnc3[C@@H]2c2nc3ccccc3s2)o1` [Example 1810, (R)-(4-(benzo[d]thiazol-2-yl)-6,7-dihydro-1H-imidazo[4,5-c]pyridin-5(4H)-yl)(4-(difluoromethyl)-2-(2-hydroxypropan-2-yl)oxazol-5-yl)methanone], the AC50 is 1000 to 5000 nM.

On to `O=C(c1nnc(-c2ccc(F)cc2F)o1)N1CCc2[nH]cnc2[C@H]1c1nc2ccccc2s1` [Example 1811], for which the concentration at half-maximal activity (AC50) was less than 500 nM.

Regarding `O=C(c1nnc(-c2ccc(F)cc2F)o1)N1CCc2[nH]cnc2[C@@H]1c1nc2ccccc2s1` [Example 1812, (R)-(4-(benzo[d]thiazol-2-yl)-6,7-dihydro-1H-imidazo[4,5-c]pyridin-5(4H)-yl)(5-(2,4-difluorophenyl)-1,3,4-oxadiazol-2-yl)methanone], the AC50 lay in the range of 500 to 1000 nM.

In the case of `Cn1ncnc1C(=O)N1CCc2[nH]cnc2[C@H]1c1nc2ccccc2s1` [Example 1813], the concentration at half-maximal activity (AC50) lay within 500 to 1000 nM.

In the case of `Cn1ncnc1C(=O)N1CCc2[nH]cnc2[C@@H]1c1nc2ccccc2s1` [Example 1814, (R)-(4-(benzo[d]thiazol-2-yl)-6,7-dihydro-1H-imidazo[4,5-c]pyridin-5(4H)-yl)(1-methyl-1H-1,2,4-triazol-5-yl)methanone], the AC50 was more than 5000 nM.

Regarding `O=C(c1cc(C(F)(F)F)n[nH]1)N1CCc2[nH]cnc2[C@@H]1c1nc2c(F)cccc2s1` [Example 1815, (R)-(4-(4-fluorobenzo[d]thiazol-2-yl)-6,7-dihydro-1H-imidazo[4,5-c]pyridin-5(4H)-yl)(3-(trifluoromethyl)-1H-pyrazol-5-yl)methanone], the concentration at half-maximal activity (AC50) was in the range of 1000 to 5000 nM.

For `O=C(c1cc(C(F)(F)F)n[nH]1)N1CCc2[nH]cnc2[C@H]1c1nc2c(F)cccc2s1` [Example 1816, (S)-(4-(4-fluorobenzo[d]thiazol-2-yl)-6,7-dihydro-1H-imidazo[4,5-c]pyridin-5(4H)-yl)(3-(trifluoromethyl)-1H-pyrazol-5-yl)methanone], the half-maximal activity concentration (AC50) lay in the range of 1000 to 5000 nM.

As for `O=C(c1ccnn1C(F)F)N1CCc2[nH]cnc2[C@H]1c1nc2ccccc2s1` [Example 1817], the AC50 is less than 500 nM.

In the case of `O=C(c1ccnn1C(F)F)N1CCc2[nH]cnc2[C@@H]1c1nc2ccccc2s1` [Example 1818, (R)-(4-(benzo[d]thiazol-2-yl)-6,7-dihydro-1H-imidazo[4,5-c]pyridin-5(4H)-yl)(1-(difluoromethyl)-1H-pyrazol-5-yl)methanone], the AC50 was 1000 to 5000 nM.

`Cn1ncc(C(=O)N2CCc3[nH]cnc3[C@H]2c2nc3ccccc3s2)c1C(F)F` [Example 1819]: the AC50 was 500 to 1000 nM.

In the case of `Cn1ncc(C(=O)N2CCc3[nH]cnc3[C@@H]2c2nc3ccccc3s2)c1C(F)F` [Example 1820, (R)-(4-(benzo[d]thiazol-2-yl)-6,7-dihydro-1H-imidazo[4,5-c]pyridin-5(4H)-yl)(5-(difluoromethyl)-1-methyl-1H-pyrazol-4-yl)methanone], the AC50 is more than 5000 nM.

The values are drawn from patent publication US20250171438A1 (Agios Pharmaceuticals, Inc., priority 2022, published 2025).
